According to PMC11391413 (Chemical Science, 2024):
No end group written: not given here.

Each compound was assayed against T1, full-length GRB2, KD1 (NSH3) (Homo sapiens, UniProt P62993) (assay: ITC of full-length GRB2 with SOS1 PRMs, KD1). Details: not given.
T1 construct: further corroborated by our ITC analysis of the full-length GRB2; His6 (N, cleaved yes); TEV protease cleavage site (N, cleaved yes); made in house; host or cells: Escherichia coli BL21 (DE3) pLysS
Assay type: binding

T1 sequence (P62993 whole entry): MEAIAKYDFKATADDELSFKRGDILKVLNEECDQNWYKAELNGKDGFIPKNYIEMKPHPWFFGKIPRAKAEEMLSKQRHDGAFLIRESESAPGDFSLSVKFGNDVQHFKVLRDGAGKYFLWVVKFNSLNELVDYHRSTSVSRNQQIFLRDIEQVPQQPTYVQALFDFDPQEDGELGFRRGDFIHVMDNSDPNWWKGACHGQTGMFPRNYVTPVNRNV

Question: How did the Kd turn out when `CC(C)C[C@H](NC(=O)[C@H](CCCCN)NC(=O)[C@@H]1CCCN1)C(=O)N1CCC[C@H]1C(=O)N1CCC[C@H]1C(=O)N[C@@H](CCCCN)C(=O)N[C@H](C(=O)N[C@@H](Cc1ccc(O)cc1)C(=O)N[C@@H](CCCCN)C(=O)N[C@@H](CCCNC(=N)N)C(=O)N[C@@H](CCC(=O)O)C(=O)N[C@@H](Cc1c[nH]cn1)C(=O)O)[C@@H](C)O` [S10] was run?
Answer: Its Kd is 71.5 ± 24.2 µM.

Question: DSPPAIPPRQPT [S5] was tested. Which Kd did it give?
Answer: Its Kd is 15.9 ± 1.5 µM.

Question: Which Kd does the source give for IAGPPVPPRQST [S9] here?
Answer: Its Kd is 35.6 ± 4.2 µM.

Question: PSPHGTRRHLPSPP [S8] was tested. Which Kd did it give?
Answer: The Kd was 123 ± 18.6 µM.

Question: How did the Kd turn out when ESPPLLPPREPV [S6] was run?
Answer: Its Kd is 40.1 ± 6.5 µM.

Question: PKPLPRFPKK [S2] was tested. Which Kd did it give?
Answer: Its Kd is 65.1 ± 23.7 µM.

These compounds were tested against NSH3 domain of full-length GRB2 (Homo sapiens, UniProt P62993) (assay: NMR titration (1H-15N HSQC chemical shift perturbation) of 15N-labelled full-length GRB2 with SOS1 PRMs, KD1). Details: read-out: K D (μM) from full-length GRB2, K D1 (NSH3), global fit of residues with maximum CSPs over 0.03 ppm, independent two-site binding model, GRB2 approx. 200 to 270 μM, 20 mM sodium phosphate, 25 °C, bootstrap 1000 iterations.
Chain of NSH3 domain of full-length GRB2 (P62993 whole entry, the tested form may be a part): as the sequence (P62993 whole entry) above
Method: Models with two binding sites basically require a total of four dissociation constants (KD1–KD4). The two-site independent binding model equates KD3 and KD4 with KD2 and KD1, respectively. In contrast, the two-site cooperative binding model (two-site dependent model) differentiates the four dissociation constants, with the assumption that KD3 is modulated by another ligand binding to KD2, as a function of KD2 and a modulation factor α. KD4 is then calculated from KD1 and KD2, as shown in the equation provided in the figure (the detailed models and theory are described in Materials and methods). […] The calculations were performed using only residues showing the maximum CSPs over 0.03 ppm.
2D ^1H–^15N HSQC spectra were measured at each titration point. Chemical shift differences, Δ, were analysed by Δ = ((ΔH)^2 + (ΔN/5)^2)^1/2, where ΔH and ΔN are the differences in ppm for the backbone amide ^1H and ^15N chemical shifts between the two conditions. 1 ppm corresponds to 600.13 Hz for ^1H and 60.81 Hz for ^15N.
The dissociation constants for each residue were calculated by non-linear regression analysis with the equation for the single state model:[33] […]
In all models, the non-linear least-squares fitting was performed by the Levenberg–Marquardt algorithm. The precision of the model parameters was assessed by conducting the bootstrap resampling on the residuals of the regression model. […]

Question: With `CC(C)C[C@H](NC(=O)[C@H](CCCCN)NC(=O)[C@@H]1CCCN1)C(=O)N1CCC[C@H]1C(=O)N1CCC[C@H]1C(=O)N[C@@H](CCCCN)C(=O)N[C@H](C(=O)N[C@@H](Cc1ccc(O)cc1)C(=O)N[C@@H](CCCCN)C(=O)N[C@@H](CCCNC(=N)N)C(=O)N[C@@H](CCC(=O)O)C(=O)N[C@@H](Cc1c[nH]cn1)C(=O)O)[C@@H](C)O` [S10] as the compound, how does the Kd read?
Answer: The Kd was 483 ± 45.7 µM.
